Test results as given in the CombiSolv-Exp solvation set (Vermeire and Green 2021).

Test: solvent given as SMILES

## c1ccc2ccccc2c1
In C1CCOC1
  solvation free energy, 298 K: -8.21 kcal/mol
In C1COCCO1
  solvation free energy, 298 K: -7.98 kcal/mol
In CC(=O)OCC(C)C
  solvation free energy, 298 K: -7.7 kcal/mol
In CC(C)(C)O
  solvation free energy, 298 K: -6.85 kcal/mol
In CC(C)=O
  solvation free energy, 298 K: -7.84 kcal/mol
In CC(C)CC(C)(C)C
  solvation free energy, 298 K: -6.92 kcal/mol
In CC(C)CO
  solvation free energy, 298 K: -7.09 kcal/mol
In CC(C)O
  solvation free energy, 298 K: -6.9 kcal/mol
In CCC(C)O
  solvation free energy, 298 K: -6.88 kcal/mol
In CCCCCC
  solvation free energy, 298 K: -7.24 kcal/mol
In CCCCCCC
  solvation free energy, 298 K: -7.22 kcal/mol
In CCCCCCCCC=CCCCCCCCC(=O)OCC(COC(=O)CCCCCCCC=CCCCCCCCC)OC(=O)CCCCCCCC=CCCCCCCCC
  solvation free energy, 298 K: -7.56 kcal/mol
In CCCCCCCCO
  solvation free energy, 298 K: -7.08 kcal/mol
In CCCCCCO
  solvation free energy, 298 K: -7.12 kcal/mol
In CCCCCO
  solvation free energy, 298 K: -6.89 kcal/mol
In CCCCO
  solvation free energy, 298 K: -7.09 kcal/mol
In CCCO
  solvation free energy, 298 K: -7.08 kcal/mol
In CCO
  solvation free energy, 298 K: -7.08 kcal/mol
In CCOC(C)=O
  solvation free energy, 298 K: -7.78 kcal/mol
In CN1CCCC1=O
  solvation free energy, 298 K: -8.08 kcal/mol
In CN(C)C=O
  solvation free energy, 298 K: -7.95 kcal/mol
In CO
  solvation free energy, 298 K: -7.01 kcal/mol
In Cc1ccc(C)cc1
  solvation free energy, 298 K: -7.88 kcal/mol
In Cc1cccc(C)c1
  solvation free energy, 298 K: -7.86 kcal/mol
In Cc1ccccc1C
  solvation free energy, 298 K: -7.85 kcal/mol
In ClC(Cl)(Cl)Cl
  solvation free energy, 298 K: -7.63 kcal/mol
In ClCCCl
  solvation free energy, 298 K: -8.02 kcal/mol
In ClCCl
  solvation free energy, 298 K: -8.1 kcal/mol
In Clc1ccccc1
  solvation free energy, 298 K: -7.87 kcal/mol
In O
  solvation free energy, 298 K: -2.37 kcal/mol
In O=C1CCCCC1
  solvation free energy, 298 K: -7.72 kcal/mol

## CCCOC(=O)c1ccc(O)cc1
In O
  solvation free energy, 298 K: -9.37 kcal/mol

## CCC1(c2ccccc2)C(=O)NC(=O)NC1=O
In O
  solvation free energy, 298 K: -15.4 kcal/mol

## Clc1cc(Cl)c(Cl)cc1Cl
In CCCCCCCCO
  solvation free energy, 298 K: -7.67 kcal/mol
In O
  solvation free energy, 298 K: -1.34 kcal/mol

## O=C(O)c1cccc([N+](=O)[O-])c1
In C1CCOC1
  solvation free energy, 298 K: -12.5 kcal/mol
In C1COCCO1
  solvation free energy, 298 K: -12.2 kcal/mol
In CC(C)(C)O
  solvation free energy, 298 K: -12.4 kcal/mol
In CC(C)CCO
  solvation free energy, 298 K: -11.8 kcal/mol
In CC(C)CO
  solvation free energy, 298 K: -12.1 kcal/mol
In CC(C)O
  solvation free energy, 298 K: -12.4 kcal/mol
In CCC(C)O
  solvation free energy, 298 K: -12.3 kcal/mol
In CCCC(C)O
  solvation free energy, 298 K: -12.2 kcal/mol
In CCCCCCCCCCO
  solvation free energy, 298 K: -11.8 kcal/mol
In CCCCCCCCO
  solvation free energy, 298 K: -11.9 kcal/mol
In CCCCCCCO
  solvation free energy, 298 K: -11.9 kcal/mol
In CCCCCCO
  solvation free energy, 298 K: -12 kcal/mol
In CCCCCO
  solvation free energy, 298 K: -12.1 kcal/mol
In CCCCO
  solvation free energy, 298 K: -12.2 kcal/mol
In CCCCOC(C)=O
  solvation free energy, 298 K: -11.6 kcal/mol
In CCCO
  solvation free energy, 298 K: -12.3 kcal/mol
In CCO
  solvation free energy, 298 K: -12.5 kcal/mol
In CCOC(C)=O
  solvation free energy, 298 K: -11.9 kcal/mol
In CCOCC
  solvation free energy, 298 K: -12.1 kcal/mol
In CO
  solvation free energy, 298 K: -12.7 kcal/mol
In COC(C)=O
  solvation free energy, 298 K: -12.1 kcal/mol
In O
  solvation free energy, 298 K: -9.45 kcal/mol

## CCC(CC)CC
In C=CCCCCCCCCCCCCCC
  solvation free energy, 298 K: -4.07 kcal/mol
In CC#N
  solvation free energy, 298 K: -3.02 kcal/mol
In O
  solvation free energy, 298 K: 2.61 kcal/mol

## Cc1ccc(C)c(O)c1
In CCCCCC
  solvation free energy, 298 K: -6.46 kcal/mol
In CCCCCCC
  solvation free energy, 298 K: -6.44 kcal/mol
In CCCCCCCC
  solvation free energy, 298 K: -6.44 kcal/mol
In Cc1ccc(C)cc1
  solvation free energy, 298 K: -7.72 kcal/mol
In Cc1cccc(C)c1
  solvation free energy, 298 K: -7.76 kcal/mol
In Cc1ccccc1C
  solvation free energy, 298 K: -7.8 kcal/mol
In O
  solvation free energy, 298 K: -5.92 kcal/mol

## O=c1[nH]cc(C(F)(F)F)c(=O)[nH]1
In O
  solvation free energy, 298 K: -15.5 kcal/mol

## ClC(Cl)=C(Cl)C(Cl)=C(Cl)Cl
In O
  solvation free energy, 298 K: -0.46 kcal/mol

## C=CC1(C)CCC(C(C)C)=CC1C(=C)C (stereo unspecified)
In O
  solvation free energy, 298 K: -0.42 kcal/mol

## CCOP(=O)(OCC)OCC
In O
  solvation free energy, 298 K: -7.5 kcal/mol

## O=C(CC(=O)C(F)(F)F)C(F)(F)F
In O
  solvation free energy, 298 K: -4.56 kcal/mol

## CC1(C)CCCC2(C)C3CC4C(C31)C42C (stereo unspecified)
In O
  solvation free energy, 298 K: 1.12 kcal/mol

## Oc1ccccc1O
In CCCCCC
  solvation free energy, 298 K: -5.88 kcal/mol
In CCCCCCCC
  solvation free energy, 298 K: -6.04 kcal/mol
In Cc1ccc(C)cc1
  solvation free energy, 298 K: -7.95 kcal/mol
In Cc1cccc(C)c1
  solvation free energy, 298 K: -7.97 kcal/mol
In Cc1ccccc1C
  solvation free energy, 298 K: -8.02 kcal/mol
In O
  solvation free energy, 298 K: -9.82 kcal/mol

## CCCOC(=O)CC
In O
  solvation free energy, 298 K: -2.45 kcal/mol

## O=C(O)c1cccc([N+](=O)[O-])c1C(=O)O
In C1CCOC1
  solvation free energy, 298 K: -19.1 kcal/mol
In C1COCCO1
  solvation free energy, 298 K: -18.7 kcal/mol
In CC(C)=O
  solvation free energy, 298 K: -18.5 kcal/mol
In CC(C)CO
  solvation free energy, 298 K: -17.8 kcal/mol
In CC(C)O
  solvation free energy, 298 K: -18.4 kcal/mol
In CCC(C)O
  solvation free energy, 298 K: -18.1 kcal/mol
In CCCCCCCO
  solvation free energy, 298 K: -17.6 kcal/mol
In CCCCCCO
  solvation free energy, 298 K: -17.7 kcal/mol
In CCCCCO
  solvation free energy, 298 K: -17.8 kcal/mol
In CCCCO
  solvation free energy, 298 K: -17.9 kcal/mol
In CCCO
  solvation free energy, 298 K: -18.3 kcal/mol
In CCOC(C)=O
  solvation free energy, 298 K: -17.3 kcal/mol
In COC(C)=O
  solvation free energy, 298 K: -18.2 kcal/mol
In O
  solvation free energy, 298 K: -17.3 kcal/mol

## CCCCCCCCCCCO
In CCCCCCCCCCO
  solvation free energy, 298 K: -10.3 kcal/mol

## CC(=O)OC(C)OC(C)=O
In O
  solvation free energy, 298 K: -4.97 kcal/mol

## CCSCC
In O
  solvation free energy, 298 K: -1.46 kcal/mol

## Clc1cc(Cl)c(-c2cc(Cl)c(Cl)c(Cl)c2Cl)cc1Cl
In CCCCCCCCO
  solvation free energy, 298 K: -13.9 kcal/mol
In O
  solvation free energy, 298 K: -3.53 kcal/mol

## C=CC=CC=C
In C=CCCCCCCCCCCCCCC
  solvation free energy, 298 K: -3.78 kcal/mol
In O
  solvation free energy, 298 K: 0.2 kcal/mol
